Test: Effect and timing of food on pharmacokinetics of TAK-390 after a single oral dose of TAK-390MR 90 mg (phase 1, 4-way crossover)
Format: in vivo, human
Conditions: oral 90 mg dose with a high fat meal
Method: The purpose of this study was to evaluate the effect of food on the pharmacokinetics (PK) and pharmacodynamics (PD) of TAK-390 after a single oral dose of TAK-390 MR 90 mg, made as described in Example 1. This study was a phase 1, open-label, randomized, single-dose, 4-way crossover study conducted at a single center. Healthy adult subjects were randomized on Day 1 of Period 1 to 1 of 4 sequence groups that determined the order in which patients received the 4 different dosing regimens (See, Table 4, below). […] There was a minimum washout interval of at least 5 days between the last dose in a period and the first dose in the subsequent period. […] PK parameters for TAK-390 were estimated using standard noncompartmental methods and include: tlag=time delay between drug administration and first observed concentration above the lower limit of quantitation; tmax=time to reach the observed maximum plasma concentration; Cmax=observed maximum plasma concentration; and AUC=area under the plasma concentration vs time curve from time zero the last quantifiable concentration (AUCt) and from time zero to infinity (AUC∞).

## Cc1c(OCC(F)(F)F)ccnc1C[S@@+]([O-])c1nc2ccccc2[nH]1 [dexlansoprazole]
  increase in AUC∞: approximately 37%
  increase in Cmax: approximately 37%

Source: patent publication US8173158B2, “Methods of treating gastrointestinal disorders independent of the intake of food” (Takeda Pharmaceuticals U.S.A., Inc., priority 2007, dated 2012)
